What was measured:
giant foxtail = experiment: Test B pre/postemergence giant foxtail; type: in vivo, Setaria faberii
Summary of the method: (§1)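 Herbicidal effect was estimated by eye on a ten-point control scale after plants spent twelve to sixteen days in a greenhouse following soil or foliar treatment. Foliar sprays targeted plants at one to four leaves; all doses were formulated in a non-phytotoxic solvent with surfactant.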

morningglory = experiment: Test B pre/postemergence morningglory; type: in vivo, Ipomoea hederacea
Summary of the method: as §1

pigweed = experiment: Test B pre/postemergence pigweed; type: in vivo, Amaranthus retroflexus
Summary of the method: as §1

[1] = Postemergence, Rate 31 g/ha, visual rating, scale 0 to 10 (0 no effect, 10 complete control)
[2] = Preemergence, Rate 62 g/ha, scale of 0 to 10 where 0 is no effect and 10 is complete control
[3] = Preemergence, Rate 250 g/ha, scale of 0 to 10 where 0 is no effect and 10 is complete control
[4] = Rate 62 g/ha, Postemergence, scale 0 to 10 (0 no effect, 10 complete control)
[5] = Rate 125 g/ha, Postemergence, scale of 0 to 10 where 0 is no effect and 10 is complete control
[6] = Rate 250 g/ha, Postemergence, scale of 0 to 10 where 0 is no effect and 10 is complete control
[7] = Postemergence, Rate 250 g/ha, scale 0 to 10, 0 no effect, 10 complete control
[8] = Postemergence, Rate 1000 g/ha, scale 0 to 10 (0 no effect, 10 complete control)
[9] = Preemergence, Rate 125 g/ha, scale 0 to 10 (0 no effect, 10 complete control)
[10] = Preemergence, Rate 500 g/ha, scale 0 (no effect) to 10 (complete control)
[11] = Rate 125 g/ha, Postemergence, scale 0 to 10, 0 no effect, 10 complete control
[12] = Rate 500 g/ha, Postemergence, 0 to 10 scale (0 no effect, 10 complete control)
[13] = Rate 1000 g/ha, Preemergence, scale 0 to 10 (0 no effect, 10 complete control)
[14] = Postemergence, Rate 125 g/ha, scale 0 to 10, 0 is no effect, 10 is complete control
[15] = Postemergence, Rate 250 g/ha, scale 0 to 10, 0 is no effect, 10 is complete control
[16] = Preemergence, Rate 62 g/ha, scale 0 to 10 (0 no effect, 10 complete control)
[17] = Preemergence, Rate 500 g/ha, scale of 0 to 10 where 0 is no effect and 10 is complete control
[18] = Rate 62 g/ha, Postemergence, scale of 0 to 10 where 0 is no effect and 10 is complete control
[19] = Rate 500 g/ha, Postemergence, scale 0 to 10, 0 no effect, 10 complete control
[20] = Postemergence, Rate 250 g/ha, scale 0 to 10
[21] = Postemergence, Rate 500 g/ha, scale of 0 to 10 where 0 is no effect and 10 is complete control
[22] = Preemergence, Rate 125 g/ha, scale of 0 to 10 where 0 is no effect and 10 is complete control
[23] = Preemergence, Rate 250 g/ha, scale 0 to 10, 0 is no effect, 10 is complete control
[24] = Preemergence, Rate 500 g/ha, scale 0 to 10, 0 is no effect, 10 is complete control
[25] = Rate 125 g/ha, Postemergence, scale 0 to 10, 0 is no effect, 10 is complete control
[26] = Postemergence, Rate 62 g/ha, scale 0 to 10, 0 is no effect, 10 is complete control

In the case of `Cc1cccc(C)c1-n1c(=O)on(C(=O)N(c2ccc(Cl)cc2Cl)C2CCC2)c1=O` [Compound 318], the “Giant foxtail plant response rating” value (giant foxtail; [1]) is reported as 0, the “Giant foxtail plant response rating” value (giant foxtail; Preemergence, Rate 31 g/ha, visual rating, scale 0 to 10 (0 no effect, 10 complete control)) is reported as 0 and the “Giant foxtail plant response rating” value (giant foxtail; [2]) is reported as 0. The “Giant foxtail plant response rating (0 to 10 scale)” value (giant foxtail; Preemergence, Rate 125 g/ha) was 0, the “Giant foxtail plant response rating” value (giant foxtail; [3]) was 0 and the “Giant foxtail plant response rating” value (giant foxtail; [4]) was 0. The “Giant foxtail plant response rating” value (giant foxtail; [5]) was 0, the “Plant response rating, Giant foxtail” value (giant foxtail; [6]) was 0 and the “Morningglory plant response rating” value (morningglory; [1]) was 0. The “Morningglory plant response rating” value (morningglory; [2]) was 0, the “Morningglory plant response rating (0 to 10 scale)” value (morningglory; Preemergence, Rate 125 g/ha) was 0 and the “Morningglory plant response rating” value (morningglory; [3]) was 0. The “Morningglory plant response rating” value (morningglory; [4]) was 0, the “Morningglory plant response rating” value (morningglory; [5]) was 0 and the “Plant response rating, Morningglory” value (morningglory; [6]) was 3. The “Redroot pigweed plant response rating” value (pigweed; [1]) was 0, the “Redroot pigweed plant response rating” value (pigweed; [2]) was 0 and the “Redroot pigweed plant response rating (0 to 10 scale)” value (pigweed; Preemergence, Rate 125 g/ha) was 0. For the same molecule, the “Redroot pigweed plant response rating” value (pigweed; [3]) was 0, the “Redroot pigweed plant response rating” value (pigweed; [4]) was 0 and the “Redroot pigweed plant response rating” value (pigweed; [5]) was 0. The “Plant response rating, Redroot pigweed” value (pigweed; [6]) was 0.
In the case of `COc1ccc(-n2c(=O)on(C(=O)N(C3=CCOCC3)C(C)C)c2=O)cc1` [Compound 6], the “Giant foxtail plant response rating” value (giant foxtail; [7]) is reported as 4, the “Giant foxtail plant response rating” value (giant foxtail; [8]) is reported as 7 and the “Plant response rating, Giant foxtail” value (giant foxtail; [9]) is reported as 3. The “Plant response rating, Giant foxtail” value (giant foxtail; [3]) was 4, the “Giant foxtail plant response rating” value (giant foxtail; [10]) was 9 and the “Giant foxtail plant response rating” value (giant foxtail; [11]) was 2. For the same molecule, the “Giant foxtail plant response rating” value (giant foxtail; [12]) was 5, the “Plant response rating, Giant foxtail” value (giant foxtail; [13]) was 9 and the “Morningglory plant response rating” value (morningglory; [7]) was 2. The “Morningglory plant response rating” value (morningglory; [8]) was 7, the “Plant response rating, Morningglory” value (morningglory; [9]) was 0 and the “Plant response rating, Morningglory” value (morningglory; [3]) was 0. The “Morningglory plant response rating” value (morningglory; [10]) was 0, the “Morningglory plant response rating” value (morningglory; [11]) was 0 and the “Morningglory plant response rating” value (morningglory; [12]) was 5. The “Plant response rating, Morningglory” value (morningglory; [13]) was 0, the “Redroot pigweed plant response rating” value (pigweed; [7]) was 0 and the “Redroot pigweed plant response rating” value (pigweed; [8]) was 4. For the same molecule, the “Plant response rating, Redroot pigweed” value (pigweed; [9]) was 5, the “Plant response rating, Redroot pigweed” value (pigweed; [3]) was 5 and the “Redroot pigweed plant response rating” value (pigweed; [10]) was 7. For the same molecule, the “Redroot pigweed plant response rating” value (pigweed; [11]) was 0, the “Redroot pigweed plant response rating” value (pigweed; [12]) was 0 and the “Plant response rating, Redroot pigweed” value (pigweed; [13]) was 7.
`Cc1nsc(Cl)c1Cn1c(=O)on(C(=O)N(c2ccc(F)cc2)C(C)C)c1=O` [Compound 373] was tested, and the “Plant response rating, Giant foxtail” value (giant foxtail; [14]) was 3, the “Plant response rating, Giant foxtail” value (giant foxtail; [15]) was 3 and the “Plant response rating, Giant foxtail” value (giant foxtail; [16]) was 8. For the same molecule, the “Giant foxtail plant response rating (0 to 10 scale)” value (giant foxtail; Preemergence, Rate 125 g/ha) was 8, the “Giant foxtail plant response rating” value (giant foxtail; [3]) was 10 and the “Giant foxtail plant response rating” value (giant foxtail; [17]) was 10. For the same molecule, the “Giant foxtail plant response rating” value (giant foxtail; [18]) was 0, the “Plant response rating, Giant foxtail” value (giant foxtail; [19]) was 6 and the “Plant response rating, Morningglory” value (morningglory; [14]) was 8. The “Plant response rating, Morningglory” value (morningglory; [15]) was 8, the “Plant response rating, Morningglory” value (morningglory; [16]) was 0 and the “Morningglory plant response rating (0 to 10 scale)” value (morningglory; Preemergence, Rate 125 g/ha) was 0. The “Morningglory plant response rating” value (morningglory; [3]) was 0, the “Morningglory plant response rating” value (morningglory; [17]) was 1 and the “Morningglory plant response rating” value (morningglory; [18]) was 8. For the same molecule, the “Plant response rating, Morningglory” value (morningglory; [19]) was 8, the “Plant response rating, Redroot pigweed” value (pigweed; [14]) was 3 and the “Plant response rating, Redroot pigweed” value (pigweed; [15]) was 4. The “Plant response rating, Redroot pigweed” value (pigweed; [16]) was 0, the “Redroot pigweed plant response rating (0 to 10 scale)” value (pigweed; Preemergence, Rate 125 g/ha) was 3 and the “Redroot pigweed plant response rating” value (pigweed; [3]) was 7. For the same molecule, the “Redroot pigweed plant response rating” value (pigweed; [17]) was 10, the “Redroot pigweed plant response rating” value (pigweed; [18]) was 2 and the “Plant response rating, Redroot pigweed” value (pigweed; [19]) was 6.
With `CC(C)N(C(=O)n1oc(=O)n(CNC(=O)c2ccccc2)c1=O)c1ccc(F)cc1` [Compound 445] the “Giant foxtail plant response rating” value (giant foxtail; [20]) was 1, the “Giant foxtail plant response rating” value (giant foxtail; [21]) was 2 and the “Plant response rating, Giant foxtail” value (giant foxtail; [2]) was 0. The “Plant response rating, Giant foxtail” value (giant foxtail; [22]) was 0, the “Giant foxtail plant response rating” value (giant foxtail; [23]) was 5 and the “Giant foxtail plant response rating” value (giant foxtail; [24]) was 9. For the same molecule, the “Giant foxtail plant response rating” value (giant foxtail; [4]) was 0, the “Giant foxtail plant response rating” value (giant foxtail; [25]) was 0 and the “Morningglory plant response rating” value (morningglory; [20]) was 4. For the same molecule, the “Morningglory plant response rating” value (morningglory; [21]) was 8, the “Plant response rating, Morningglory” value (morningglory; [2]) was 0 and the “Plant response rating, Morningglory” value (morningglory; [22]) was 0. For the same molecule, the “Morningglory plant response rating” value (morningglory; [23]) was 0, the “Morningglory plant response rating” value (morningglory; [24]) was 0 and the “Morningglory plant response rating” value (morningglory; [4]) was 3. For the same molecule, the “Morningglory plant response rating” value (morningglory; [25]) was 4, the “Redroot pigweed plant response rating” value (pigweed; [21]) was 4 and the “Plant response rating, Redroot pigweed” value (pigweed; [2]) was 0. The “Plant response rating, Redroot pigweed” value (pigweed; [22]) was 2, the “Redroot pigweed plant response rating” value (pigweed; [23]) was 4 and the “Redroot pigweed plant response rating” value (pigweed; [24]) was 10. For the same molecule, the “Redroot pigweed plant response rating” value (pigweed; [4]) was 0 and the “Redroot pigweed plant response rating” value (pigweed; [25]) was 0.
In the case of `CC(C)N(C(=O)n1oc(=O)n(C2CCC2)c1=O)c1ccccc1` [Compound 348], the “Plant response rating, Giant foxtail” value (giant foxtail; [14]) is reported as 8, the “Plant response rating, Giant foxtail” value (giant foxtail; [16]) is reported as 9 and the “Giant foxtail plant response rating (0 to 10 scale)” value (giant foxtail; Preemergence, Rate 125 g/ha) is reported as 10. The “Giant foxtail plant response rating” value (giant foxtail; [3]) was 10, the “Giant foxtail plant response rating” value (giant foxtail; [17]) was 10 and the “Giant foxtail plant response rating” value (giant foxtail; [18]) was 3. The “Plant response rating, Giant foxtail” value (giant foxtail; [19]) was 9, the “Plant response rating, Morningglory” value (morningglory; [14]) was 9 and the “Plant response rating, Morningglory” value (morningglory; [16]) was 0. For the same molecule, the “Morningglory plant response rating (0 to 10 scale)” value (morningglory; Preemergence, Rate 125 g/ha) was 0, the “Morningglory plant response rating” value (morningglory; [3]) was 0 and the “Morningglory plant response rating” value (morningglory; [17]) was 0. For the same molecule, the “Morningglory plant response rating” value (morningglory; [18]) was 2, the “Plant response rating, Morningglory” value (morningglory; [19]) was 10 and the “Plant response rating, Redroot pigweed” value (pigweed; [14]) was 0. The “Plant response rating, Redroot pigweed” value (pigweed; [16]) was 0, the “Redroot pigweed plant response rating (0 to 10 scale)” value (pigweed; Preemergence, Rate 125 g/ha) was 0 and the “Redroot pigweed plant response rating” value (pigweed; [3]) was 10. The “Redroot pigweed plant response rating” value (pigweed; [17]) was 10, the “Redroot pigweed plant response rating” value (pigweed; [18]) was 0 and the “Plant response rating, Redroot pigweed” value (pigweed; [19]) was 5.
`CCN(C(=O)n1oc(=O)n(-c2c(C)cc(C)cc2C)c1=O)C1CCCCC1` [Compound 63] was tested, and the “Giant foxtail plant response rating” value (giant foxtail; [26]) was 0, the “Giant foxtail plant response rating” value (giant foxtail; [7]) was 0 and the “Giant foxtail plant response rating” value (giant foxtail; [16]) was 0. For the same molecule, the “Plant response rating, Giant foxtail” value (giant foxtail; [9]) was 0, the “Plant response rating, Giant foxtail” value (giant foxtail; [3]) was 2 and the “Giant foxtail plant response rating” value (giant foxtail; [10]) was 3. For the same molecule, the “Giant foxtail plant response rating” value (giant foxtail; [11]) was 0, the “Giant foxtail plant response rating” value (giant foxtail; [19]) was 2 and the “Morningglory plant response rating” value (morningglory; [26]) was 0. For the same molecule, the “Morningglory plant response rating” value (morningglory; [7]) was 4, the “Morningglory plant response rating” value (morningglory; [16]) was 0 and the “Plant response rating, Morningglory” value (morningglory; [9]) was 0. The “Plant response rating, Morningglory” value (morningglory; [3]) was 0, the “Morningglory plant response rating” value (morningglory; [10]) was 0 and the “Morningglory plant response rating” value (morningglory; [11]) was 2. The “Morningglory plant response rating” value (morningglory; [19]) was 4, the “Redroot pigweed plant response rating” value (pigweed; [26]) was 0 and the “Redroot pigweed plant response rating” value (pigweed; [7]) was 0. The “Redroot pigweed plant response rating” value (pigweed; [16]) was 0, the “Plant response rating, Redroot pigweed” value (pigweed; [9]) was 0 and the “Plant response rating, Redroot pigweed” value (pigweed; [3]) was 0. The “Redroot pigweed plant response rating” value (pigweed; [10]) was 0, the “Redroot pigweed plant response rating” value (pigweed; [11]) was 0 and the “Redroot pigweed plant response rating” value (pigweed; [19]) was 2.

Reference: US6737383B1, “Herbicidal oxadiazolidines” (priority 1999, dated 2004)
